Read-outs that look alike come from different tables or passages of the source.
Test system: SARS-CoV-2 strain BavPat1
Experiment: Determination of EC50 and EC90: inhibition of SARS-CoV-2 viral RNA replication in Vero E6 cells (RT-qPCR)
Type: cell-based
Settings: Severe acute respiratory syndrome coronavirus 2, Vero C1008, 48 h, read-out: EC50 (compound concentration required to inhibit viral RNA replication by 50%)

CCC(CC)COC(=O)[C@H](C)N[P@](=O)(OC[C@H]1O[C@@](C#N)(c2ccc3c(N)ncnn23)[C@H](O)[C@@H]1O)Oc1ccccc1 [remdesivir, Remdesivir]
EC50: 2700 nM

CCn1c(CO)nn(-c2cc(O[C@@H](C)C(F)(F)F)c(C(=O)Nc3c(F)cccc3Cl)cc2F)c1=O [BAY-2402234, N-(2-Chloro-6-fluorophenyl)-4-[4-ethyl-3-(hydroxymethyl)-5-oxo-1,2,4-triazol-1-yl]-5-fluoro-2-[(2S)-1,1,1-trifluoropropan-2-yl]oxybenzamide]
EC50 (Vero E6 cells, MOI 0.002, 2 days of culture, viral RNA in supernatant): < 40 nM
